The text below walks through data of US7417053B2, “Pyrazolo[1,5-a]pyridine derivatives or pharmaceutically acceptable salts thereof” (Teijin Pharma Limited, priority 2005, dated 2008).

Each structure is given as a SMILES string. Counter-ions that a name gives are not always drawn.

The IC50 is the midpoint of a concentration-inhibition curve.

Chain of recombinant human MAPKAP-K2 (P49137 whole entry): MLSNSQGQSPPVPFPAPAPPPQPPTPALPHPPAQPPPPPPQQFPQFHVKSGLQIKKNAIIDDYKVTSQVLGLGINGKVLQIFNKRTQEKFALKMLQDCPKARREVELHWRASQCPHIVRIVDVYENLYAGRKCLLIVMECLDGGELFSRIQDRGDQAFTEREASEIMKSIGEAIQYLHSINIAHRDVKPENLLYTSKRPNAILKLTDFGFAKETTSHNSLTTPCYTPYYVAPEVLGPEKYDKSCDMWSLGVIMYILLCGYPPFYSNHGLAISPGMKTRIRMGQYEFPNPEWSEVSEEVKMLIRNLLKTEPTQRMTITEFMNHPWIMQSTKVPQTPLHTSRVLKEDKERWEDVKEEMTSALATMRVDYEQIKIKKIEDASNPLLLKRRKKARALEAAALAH

This test concerns the target recombinant human MAPKAP-K2 (Homo sapiens, UniProt P49137). In words: Inhibitory activity against MAPKAP-K2 enzyme (33P-ATP peptide phosphorylation). The format is biochemical. To be noted: recombinant human MAPKAP-K2, ATP 20 μmol/L solution, room temperature 30 min; read-out: Activity Strength (MAPKAP-K2 IC50 value). Here is the method: General Measurement Method for Determining the Inhibitory Activity Against MAPKAP-K2 enzyme
(Preparation of Solutions of Compounds)
Each compound was dissolved in DMSO to prepare a solution with a concentration of 20 mmol/L and this solution was stored at −20° C. This stock solution was diluted with DMSO successively to prepare solutions with 200-fold concentrations of a necessary range. These solutions were further diluted with water at a ratio of 1:20 to prepare solutions with 10-fold concentrations of a necessary range. Each of these solutions (5 μL) was used for each reaction in 50 μL-scale. Through the dilution series of all compounds, the final DMSO concentration was kept at 0.5%. Conventional tests for the compounds were carried out at a final concentration range from 100 μmol/L to 0.03 μmol/L. but in some cases, tests were carried out at lower concentrations, depending on activity.
(Measurements of MAPKAP-K2 Enzyme Activities)
To a 5% DMSO aqueous solution (5 μL) of a test compound, a solution (25 μL) containing a peptide substrate [peptide substrate 60 μmol/L, ATP 20 μmol/L, Tris buffer 60 mmol/L (pH 7.5), EGTA 0.2 mmol/L, β-mercaptoethanol 0.2%, magnesium acetate 20 mmol/L, [γ-33P]ATP 0.1 μCi (specific radioactivity ca. 110 TBq/mmol)] was added. The reaction was initiated by adding a solution (20 μL) containing MAPKAP-K2 enzyme [recombinant human MAPKAP-K2 10 mU, Tris buffer […] (pH 7.5), EGTA 0.1 mmol/L, β-mercaptoethanol 0.1%, BSA 0.1%]. After the reaction was carried out at room temperature for 30 min, 200 mmol/L phosphoric acid (50 μL) was added to quench the reaction, and 90 μL of the reaction mixture was adsorbed on a multiscreen PH plate (Millipore). The plate was washed with 100 mmol/L phosphoric acid. After the plate was dried, 30 μL of MicroScint-O (Perkin-Elmer) was added, and the count per minute was measured on a scintillation counter to determine the inhibitory activity. The peptide substrate was Lys-Lys-Leu-Asn-Arg-Thr-Leu-Ser-Val-Ala.
• % Reference=(X−B)/(Tot−B)×100 • % Inhibition=100−% Reference • X represents count per minute of the well with a test compound applied. • B represents count per minute of the well without the enzyme. • Tot represents count per minute of the well with only DMSO solvent and no test compound applied. (Calculation of MAPKAP-K2 Inhibitory Activity) • IC50 value represents a concentration of compound at which 50% inhibition is observed.
On to `CCOc1ccc(Nc2c(C3CC3)c(N[C@H]3CC[C@H](N)CC3)c(C#N)c3ccnn23)cc1` [Compound 131, 5-(trans-4-Amionocyclohexylamino)-7-(4-ethoxyphenylamino)-6-cyclopropylpyrazolo[1,5-a]pyridine-4-carbonitrile], for which the IC50 was below 200 nM.
In the case of `COCCOc1ccc(Nc2c(C)c(N[C@H]3CCNC3)c(C#N)c3ccnn23)cc1` [Compound 88, 5-[(3S)-3-Pyrrolidylamino]-7-[4-(2-methoxyethoxy)phenylamino]-6-methylpyrazolo[1,5-a]pyridine-4-carbonitrile trifluoroacetate salt], the IC50 fell in the range of 200 to 1000 nM.
In the case of `CCOc1ccc(Nc2c(-c3ccccc3)c(NC3CCCNC3)c(C#N)c3ccnn23)cc1` (centres unmarked) [Compound 95, 5-(3-Piperidylamino)-7-(4-ethoxyphenylamino)-6-phenylpyrazolo[1,5-a]pyridine-4-carbonitrile trifluoroacetate salt], the IC50 lay in the range of 200 to 1000 nM.
Turning to `Cc1nc2ccc(Nc3c(C)c(N[C@H]4CCCNC4)c(C#N)c4ccnn34)cc2s1` [Compound 91, 5-[(3S)-3-Piperidylamino]-7-(2-methylbenzothiazol-6-ylamino)-6-methylpyrazolo[1,5-a]pyridine-4-carbonitrile], the IC50 was below 200 nM.
For `CCOc1ccc(Nc2c(C)c(NCC3CCCCN3)c(C#N)c3ccnn23)cc1` (centres unmarked) [Compound 119, 7-[(4-Ethoxyphenyl)amino]-6-methyl-5-[(2-piperidylmethyl)amino]pylrazolo[1,5-a]pyridine-4-carbonitrile trifluoroacetate salt], the IC50 was in the range of 1000 to 10000 nM.
For `Cc1c(N[C@H]2CCCNC2)c(C#N)c2ccnn2c1Nc1ccc2ncsc2c1` [Compound 117, 5-[((3S)-3-Piperidyl)amino]-7-(benzothiazol-6-ylamino)-6-methylpyrazolo[1,5-a]pyridine-4-carbonitrile trifluoroacetate salt], the IC50 was below 200 nM.
On to `N#Cc1c(N[C@H]2CC[C@H](N)CC2)cc(Nc2ccccc2Cl)n2nccc12` [Compound 94, 5-(trans-4-Aminocyclohexylamino)-7-(2-chlorophenylamino)pyrazolo[1,5-a]pyridine-4-carbonitrile trifluoroacetate salt], for which the IC50 lay within 200 to 1000 nM.
The same measure for `CCOc1ccc(Nc2c(CCO)c(N[C@H]3CCCNC3)c(C#N)c3ccnn23)cc1` [Compound 90, 5-[(3S)-3-Piperidylamino]-7-(4-ethoxyphenylamino)-6-(2-hydroxyethyl)pyrazolo[1,5-a]pyridine-4-carbonitrile]: below 200 nM; for `CCOc1ccc(Nc2c(C)c(NCCCCN)c(C#N)c3ccnn23)cc1` [Compound 108, 5-[(4-Aminobutyl)amino]-7-[(4-ethoxyphenyl)amino]-6-methylpyrazolo[1,5-a]pyridine-4-carbonitrile trifluoroacetate salt]: 200 to 1000 nM; for `CCOc1ccc(Nc2c(C3CC3)c(N[C@H]3CCCNC3)c(C#N)c3ccnn23)cc1` [Compound 130, 5-[(3S)-3-Piperidylamino]-7-(4-ethoxyphenylamino)-6-cyclopropylpyrazolo[1,5-a]pyridine-4-carbonitrile]: 200 to 1000 nM.
Turning to `CCOc1ccc(Nc2c(C)c(NC3CCNCC3)c(C#N)c3ccnn23)cc1` [Compound 103, 7-(4-Ethoxyphenylamino)-6-methyl-5-(4-pyperidylamino)pyrazolo[1,5-a]pyridine-4-carbonitrile trifluoroacetate salt], the IC50 was 200 to 1000 nM.
`N#Cc1c(N[C@H]2CCCNC2)cc(Nc2ccc(-c3ccccc3)cc2)n2nccc12` [Compound 100, 5-[(3S)-3-Piperidylamino]-7-(4-biphenylylamino)pyrazolo[1,5-a]pyridine-4-carbonitrile trifluoroacetate salt]: the IC50 lay in the range of 200 to 1000 nM.
Take `CCOc1ccc(Nc2c(C)c(N[C@H]3CC[C@H](NCC4CCCCC4)CC3)c(C#N)c3ccnn23)cc1` [Compound 126, 5-({4-[(Cyclohexylmethyl)amino]cyclohexyl}amino)-7-[(4-ethoxyphenyl)amino]-6-methylpyrazolo[1,5-a]pyridine-4-carbonitrile trifluoroacetate salt]: the IC50 lay within 200 to 1000 nM.
The same measure for `COCCOc1ccc(Nc2c(C)c(N[C@H]3CC[C@H](N)CC3)c(C#N)c3ccnn23)cc1` [Compound 89, 5-(trans-4-Aminocyclohexylamino)-7-[4-(2-methoxyethoxy)phenylamino]-6-methylpyrazolo[1,5-a]pyridine-4-carbonitrile trifluoroacetate salt]: below 200 nM.
As for `CCOc1ccc(Nc2c(CC)c(N[C@H]3CCCNC3)c(C#N)c3ccnn23)cc1` [Compound 105, 5-[(3S)-3-Piperidylamino]-7-(4-ethoxyphenylamino)-6-ethylpyrazolo [1,5-a]pyridine-4-carbonitrile], the IC50 was below 200 nM.
As for `CCOc1ccc(Nc2c(C)c(N[C@H]3CC[C@H](NCC(C)C)CC3)c(C#N)c3ccnn23)cc1` [Compound 110, 7-[(4-Ethoxyphenyl)amino]-6-methyl-5-(trans-{4-[(2-methylpropyl)amino]cyclohexyl}amino)pyrazolo[1,5-a]pyridine-4-carbonitrile trifluoroacetate salt], the IC50 is below 200 nM.
For `CCCc1c(N[C@H]2CC[C@H](N)CC2)c(C#N)c2ccnn2c1Nc1ccc(OCC)cc1` [Compound 122, 5-(trans-4-Aminocyclohexylamino)-7-(4-ethoxyphenylamino)-6-propylpyrazolo[1,5-a]pyridine-4-carbonitrile], the IC50 was below 200 nM.
On to `CCOc1ccc(Nc2c(CC)c(N[C@H]3CC[C@H](N)CC3)c(C#N)c3ccnn23)cc1` [Compound 109, 5-(trans-4-Aminocyclohexylamino)-7-(4-ethoxyphenylamino)-6-ethylpyrazolo[1,5-a]pyridine-4-carbonitrile], for which the IC50 was below 200 nM.
With `COc1ccccc1Nc1cc(N[C@H]2CC[C@H](N)CC2)c(C#N)c2ccnn12` [Compound 98, 5-(trans-4-Aminocyclohexylamino)-7-(2-methoxyphenylamino)pyrazolo[1,5-a]pyridine-4-carbonitrile trifluoroacetate salt], the IC50 is 200 to 1000 nM.
`CCOc1ccc(Nc2c(C)c(N[C@H]3CCCC[C@@H]3N)c(C#N)c3ccnn23)cc1` (relative stereo) [Compound 101, 5-[(trans-2-Aminocyclohexyl)amino]-7-(4-ethoxyphenylamino)-6-methylpyrazolo[1,5-a]pyridine-4-carbonitrile trifluoroacetate salt]: the IC50 was 10000 to 100000 nM.
In the case of `CCOc1ccc(Nc2c(C)c(NCCC3CCCCN3)c(C#N)c3ccnn23)cc1` (centres unmarked) [Compound 113, 7-[(4-Ethoxyphenyl)amino]-6-methyl-5-[(2-(2-piperidyl)ethyl)amino]pyrazolo[1,5-a]pyridine-4-carbonitrile trifluoroacetate salt], the IC50 fell in the range of 10000 to 100000 nM.
For `COCCOc1ccc(Nc2c(C)c(N[C@H]3CCCNC3)c(C#N)c3ccnn23)cc1` [Compound 87, 5-[(3S)-3-Piperidylamino]-7-[4-(2-methoxyethoxy)phenylamino]-6-methylpyrazolo[1,5-a]pyridine-4-carbonitrile trifluoroacetate salt], the IC50 is below 200 nM.
For `CCOc1ccc(Nc2c(C)c(NC3CNCc4ccccc43)c(C#N)c3ccnn23)cc1` (centres unmarked) [Compound 127, 7-[(4-Ethoxyphenyl)amino]-6-methyl-5-[4-(1,2,3,4-tetrahydroisoquinolyl)amino]pyrazolo[1,5-a]pyridine-4-carbonitrile trifluoroacetate salt], the 50% inhibitory concentration (IC50) is 1000 to 10000 nM.
As for `CCOc1ccc(Nc2c(C)c(NCC3CCCNC3)c(C#N)c3ccnn23)cc1` (centres unmarked) [Compound 128, 7-[(4-Ethoxyphenyl)amino]-6-methyl-5-[(3-piperidylmethyl)amino]pyrazolo[1,5-a]pyridine-4-carbonitrile trifluoroacetate salt], the IC50 was in the range of 1000 to 10000 nM.
On to `CCOc1ccc(Nc2c(C)c(NCCC3CCCN3C)c(C#N)c3ccnn23)cc1` (centres unmarked) [Compound 133, 7-[(4-Ethoxyphenyl)amino]-6-methyl-5-{[2-(1-methylpyrrolidin-2-yl)ethyl]amino}pyrazolo[1,5-a]pyridine-4-carbonitrile trifluoroacetate salt], for which the IC50 fell in the range of 10000 to 100000 nM.
The same measure for `CCOc1ccc(Nc2c(C)c(NC3CCCC(N)C3)c(C#N)c3ccnn23)cc1` (centres unmarked) [Compound 104, 5-[(3-Aminocyclohexyl)amino]-7-[(4-ethoxyphenyl)amino]-6-methylpyrazolo[1,5-a]pyridine-4-carbonitrile trifluoroacetate salt]: 1000 to 10000 nM.
